What was measured:
[1] = tested on: Dermatophagoides pteronyssinus; assay: Repellence test method (invasion preventive method); format: in vivo; conditions: 1.0 g/m^2; for number of Acarina, 1 day later: untreated control 65; for number of Acarina, 2 days later: untreated control 132; for number of Acarina, 3 days later: untreated control 140
Protocol: The repellence rates of the isomer of farnesylacetone and phytone under 1.0 g/m^2 conditions for a kind of Dermatophagoides pteronyssinus were determined by the repellence test method (invasion preventive method: “Processing Technique” vol. 33, No. 2, pp. 153-155 (1998) “titled: Acarina repellent-processed product repellence test basic manual” (Apareru Seihin-tou Hinshitsu Seinou Taisaku Kyougikai). The results are shown in Table 1 below. […]

[2] = tested on: human; assay: Odor and effect on human of sampled gas containing farnesylacetone; conditions: gas containing 20,000 μg/L farnesylacetone
Protocol: Farnesylacetone (1 mL) was placed in a 50 mL sample bottle, and a large magnetic stirring bar capable of rotating the air as well was placed therein. The bottle was placed neck-deep in a water bath at 60° C. with rotation, and heated for 1 hr to fill the inside of the sample bottle with farnesylacetone vapor. Thereafter, the gas in the sample bottle was taken by 5 mL with a gas tight syringe, and using gas chromatography with an FID detector, the concentration of farnesylacetone was measured by an absolute calibration method. […] Almost simultaneously, the gas (5 mL) in the sample bottle was taken again, a propeller was set in a 10 L beaker, the gas was added into the sealed beaker, the air in the beaker was stirred with the propeller for 10 min to dilute the gas 2,000-fold, whereby gas containing 0.01 μg/L farnesylacetone was obtained. […]

[3] = tested on: Acarina; assay: Repellence test with supplied gas containing 0.001 μg/L farnesylacetone in modified glass plate test apparatus; format: in vivo; conditions: gas containing 0.001 μg/L farnesylacetone at 1 mL/min; 37±1° C., 75±5% Rh; 4 hr
Protocol: A 2L flask containing the gas containing 0.001 μg/L farnesylacetone prepared in the same manner as in Reference Example 1 was equipped with a Teflon® tube (inner diameter 2 mm) for discharging the gas containing farnesylacetone and a Teflon® tube for charging water into the container using a metering pump, whereby an apparatus to send out (supply) the gas containing farnesylacetone at 1 mL/min by introducing water into the flask at 1 mL/min was manufactured. […]
Then the test apparatus was placed in a room with constant temperature and humidity at 37±1° C., 75±5% Rh, and the apparatus was operated for 3 hr for filling the test section with the above-mentioned concentration of farnesylacetone, after which an Acarina medium containing 10000 live Acarina were inserted from the gap of the lid and left standing for 4 hr. Then, the number of Acarina that invaded into the feed for attraction in each part C of the test section side and the control section side was counted. […] The number of Acarina floating in the upper layer was counted. The repellence rate was determined by the following formula and found to be 80%. […]

[4] = tested on: Dermatophagoides farinae; assay: Acarina repellence test by improved invasion prevention method (coated lid, vapor); format: in vivo; conditions: 25° C., 1 day
Protocol: The invasion prevention method was modified and a repellence test was performed.
As a lid to cover this box (4, 4′), two glass plates (length 5.5 cm, width 6 cm, thickness 1.3 mm) were prepared.
An ethanol solution of farnesylacetone (1%, 100 mg) was coated on the surface of one (test section side) of the two lids to cover the test box, and ethanol was air dried for 10 min. Then, a sample for Acarina attraction (50 mg) each was placed on both ends of the test box in the longitudinal direction, and the above-mentioned farnesylacetone-coated lid (4′) alone was placed, such that the surface coated with farnesylacetone faced the inside of the box. The box was placed in an incubator at 37° C. for 60 min until the farnesylacetone vapor filled the test section side of the test box. […] Thereafter, the test container was taken out, the number of Acarina that invaded into the feeds in the test section side and the control section side (50 and 1100, respectively, the rest of the Acarina fled) was counted. The repellence rate was determined by the following formula and found to be 95%. The concentration of farnesylacetone filled in the air at 37° C. was measured in the same manner as in Reference Example 1 and assumed to be 5 μg/L. Repellence rate (%)=(1− number of Acarina that invaded the test section/number of Acarina that invaded the control section)×100 […]

[5] = tested on: Dermatophagoides pteronyssinus; assay: Acarina repellence test by improved glass tube method; format: in vivo; conditions: filter paper that absorbed farnesylacetone (0.1 g); 37±1° C., 75±5% Rh, 48 hr; gas concentration 5 μg/L
Text: The “glass tube method” known as one of the repellence tests for Acarina repellent-processed fibers was modified and used for a repellence test.
In the L-shaped glass tube in the test section was fixed filter paper with a two-sided tape inside the glass tube at part D, a test sample (filter paper that absorbed farnesylacetone (0.1 g)) was placed, and the glass tube opening on the D side was sealed with an airtight PARAFILM. Then, a medium containing 10,000 live Acarina (Dermatophagoides pteronyssinus) were placed in part A of the L-shaped glass Lube, and the glass end on the A side was sealed with a high density fabric capable of preventing passage of Acarina while maintaining air permeability. This test apparatus was stood still in a container maintained at 37±1° C., 75±5% Rh for 48 hr. […] The farnesylacetone concentration of the gas in part D was measured by gas chromatography. […]
Subsequently, the feed for attraction in part C was taken out, and the number of Acarina that invaded into the feed for attraction was counted by the following method. […] The number of Acarina floating in the upper layer was counted. […] The repellence rate of the test sample was determined by the following formula and found to be 98%. […]

[6] = Measurement of farnesylacetone concentration in the air (gas chromatography, FID, absolute calibration); format: physicochemical; conditions: for farnesylacetone concentration in gas of sample bottle: 1 hr
Protocol: measurement of farnesylacetone concentration in the air
Farnesylacetone (1 mL) was placed in a 50 mL sample bottle, and a large magnetic stirring bar capable of rotating the air as well was placed therein. The bottle was placed neck-deep in an oil bath at 130° C. with rotation, and heated for 1 hr to saturate the inside of the sample bottle with farnesylacetone vapor. Thereafter, the gas in the sample bottle was taken by 5 mL with a gas tight syringe, and using gas chromatography with an FID detector, the concentration of farnesylacetone was measured by the absolute calibration method.
Farnesylacetone (1 mL) was placed in a 50 mL sample bottle, and a large magnetic stirring bar capable of rotating the air as well was placed therein. The bottle was placed neck-deep in a water bath at 60° C. with rotation, and heated for 1 hr to fill the inside of the sample bottle with farnesylacetone vapor. Thereafter, the gas in the sample bottle was taken by 5 mL with a gas tight syringe, and using gas chromatography with an FID detector, the concentration of farnesylacetone was measured by an absolute calibration method. […] Almost simultaneously, the gas (5 mL) in the sample bottle was taken again, a propeller was set in a 10 L beaker, the gas was added into the sealed beaker, the air in the beaker was stirred with the propeller for 10 min to dilute the gas 2,000-fold, whereby gas containing 0.01 μg/L farnesylacetone was obtained. The diluted gas (200 mL) was sampled with a syringe, a propeller was set in a 2 L flask, the gas was added into the sealed flask, the air in the beaker was stirred with the propeller for 10 min to further dilute the gas 10-fold, whereby gas containing 0.001 μg/L farnesylacetone was obtained.

Row | SMILES | repellence rate, 1 day later [1] [%] | repellence rate, 2 days later [1] [%] | repellence rate, 3 days later [1] [%] | number of Acarina, 1 day later [1] [Acarina] | number of Acarina, 2 days later [1] [Acarina] | number of Acarina, 3 days later [1] [Acarina] | odor and effect of sampled gas on human [2] | Repellence rate [3] [%] | number of Acarina that invaded into the feed in the test section side ([4]; 50,000 released, control section side 1100) | Repellence rate ([4]; lid coated with 1% ethanol solution (100 mg), vapor only, 5 μg/L) [%] | Repellence rate [5] [%] | farnesylacetone concentration in gas of sample bottle ([6]; 60° C. water bath) [µg/L] | farnesylacetone concentration in gas of sample bottle ([6]; 130° C. oil bath, saturated vapor) | farnesylacetone concentration of the gas in part D ([6]; L-shaped glass tube of Example 1, after 48 hr at 37±1° C.) [µg/L] | concentration of farnesylacetone filled in the air ([6]; at 37° C., test box of Example 2) [ng/mL]
1 | CC(=O)CCC=C(C)CCC=C(C)CCC=C(C)C [cis-cis rich farnesylacetone, farnesylacetone] | 92.3 | 88.6 | 79.3 | 5 | 15 | 29 |  |  |  |  |  |  |  |  | 
2 | CC(=O)CC/C=C(\C)CC/C=C(\C)CCC=C(C)C [farnesylacetone] |  |  |  |  |  |  | had a strong odor, caused cough when inhaled in a large amount, and provoked uncomfortable feeling in human | 80 | 50 | 95 | 98 | 20 | 20,000 μg/L | ~5 | ~5
3 | CC(=O)CCCC(C)CCCC(C)CCCC(C)C (stereo not drawn) [phytone] | 89.2 | 90.9 | 83.6 | 7 | 12 | 23 |  |  |  |  |  |  |  |  | 
4 | CC(=O)CCC=C(C)CCC=C(C)CCC=C(C)C [trans-trans farnesylacetone, farnesylacetone] | 87.7 | 90.2 | 82.9 | 8 | 13 | 24 |  |  |  |  |  |  |  |  | 
